{
  "source": "patent US4929623A",
  "about": "“Benzothiazole derivative” (Eisai Co., Ltd., priority 1987, dated 1990)",
  "data": [
    {"system": "generation of leukotriene C4 (LT) from sliced lung of guinea pig", "experiment": "Effect on generation of leukotriene C4 from sliced lung of guinea pig (passively sensitized, ovalbumin challenge)", "assay_type": "cell-based, guinea pig (male Hartley)", "conditions": "3 μM test compound, 10 min preincubation, ovalbumin 10 μg/ml, 15 min, 37° C., 3 µM", "protocol": "(§1) Effect on generation of leukotriene C4 (LT) from sliced lung of guinea pig\n(§2) An antiovalbumin guinea pig serum (1/10 dilution; 0.5 ml/100 g) was intravenously injected into a male Hartley guinea pig (300-350 g) for passive sensitization. 16 to 18 hr after the passive sensitization, the blood was removed by circulation of the Tyrode solution and the lung was extirpated. The extirpated lung was cut into small pieces having a size of 1 mm×1 mm×1 mm while cooling the lung with ice. The pieces were washed, and 150 mg of the pieces was suspended on 1.8 ml of the Tyrode solution, followed by incubation at 37° C. for 5 min. A 3 μM test compound (the compound of the present invention) solution was added thereto, followed by incubation for 10 min. An antigen solution (ovalbumin; a final concentration of 10 μg/ml) was added thereto, followed by incubation for additional 15 min. The mixture was filtered through a nylon mesh. 100 μl of the filtrate was subjected to determination of the amount of leukotriene C4 (LTC4) with an RzA kit.\n(§3) The percentage leukotriene C4 (LTC4) liberation inhibition of each compound (indicated by compound No. used in the Examples which will be described later) is shown in Table 1.", "units": {"Percentage inhibition (leukotriene C4 (LTC4) liberation inhibition)": "%"}, "values": [
      {"smiles": "Cc1c(O)c(C)c2sc(N)nc2c1C", "note": "[Compound 92]", "Percentage inhibition (leukotriene C4 (LTC4) liberation inhibition)": 64}
    ]},
    {"system": "generation of leukotriene C4 (LT) from sliced lung of guinea pig", "experiment": "Effect on generation of leukotriene C4 from sliced lung of guinea pig (passively sensitized, ovalbumin challenge)", "assay_type": "cell-based, guinea pig (male Hartley)", "conditions": "Cavia porcellus, 3 μM test compound, 10 min preincubation, ovalbumin 10 μg/ml, 15 min, 37° C., read-out: Percentage inhibition (leukotriene C4 (LTC4) liberation inhibition)", "protocol": "as §1, §2, §3", "units": {"inhibition at 3 µM": "%"}, "values": [
      {"smiles": "Cc1c(O)c(C)c2sc(N)nc2c1C", "note": "[Compound 8, 6-hydroxy-2-amino-4,5,7-trimethylbenzothiazole]", "inhibition at 3 µM": 75},
      {"smiles": "Cc1c(O)c(C(C)C)c2sc(N)nc2c1C", "note": "[Compound 9]", "inhibition at 3 µM": 36},
      {"smiles": "CC(C)c1cc2nc(N)sc2c(C(C)C)c1O", "note": "[Compound 10]", "inhibition at 3 µM": 78},
      {"smiles": "Nc1nc2cc(Br)c(O)c(Br)c2s1", "note": "[Compound 13]", "inhibition at 3 µM": 35},
      {"smiles": "Nc1nc2c(cc(O)c3ncccc32)s1", "note": "[Compound 17]", "inhibition at 3 µM": 35},
      {"smiles": "Cc1ccc2sc(N)nc2c1O", "note": "[Compound 19]", "inhibition at 3 µM": 36},
      {"smiles": "Nc1nc2c(O)c(Cl)ccc2s1", "note": "[Compound 20]", "inhibition at 3 µM": 33},
      {"smiles": "Nc1nc2c(O)c(Br)cc(Br)c2s1", "note": "[Compound 21]", "inhibition at 3 µM": 48},
      {"smiles": "Cc1c(O)c(C(C)(C)C)cc2nc(N)sc12", "note": "[Compound 22]", "inhibition at 3 µM": 61},
      {"smiles": "Cc1c(O)c(C)c2sc(NCC(C)C)nc2c1C", "note": "[Compound 24]", "inhibition at 3 µM": 95},
      {"smiles": "Cc1c(O)c(C)c2sc(NCC3CCCCC3)nc2c1C", "note": "[Compound 25]", "inhibition at 3 µM": 36},
      {"smiles": "CCNc1nc2c(C)c(C)c(O)c(C)c2s1", "note": "[Compound 26]", "inhibition at 3 µM": 85},
      {"smiles": "Cc1c(O)c(C)c2sc(NCc3ccc(N(C)C)cc3)nc2c1C", "note": "[Compound 28]", "inhibition at 3 µM": 34},
      {"smiles": "Cc1c(O)c(C)c2sc(NCc3ccc(NS(C)(=O)=O)cc3)nc2c1C", "note": "[Compound 29]", "inhibition at 3 µM": 43},
      {"smiles": "Cc1c(O)c(C)c2sc(NCc3ccc(S(C)(=O)=O)cc3)nc2c1C", "note": "[Compound 30]", "inhibition at 3 µM": 79},
      {"smiles": "Cc1c(O)c(C)c2sc(NCc3ccc(S(=O)(=O)N(CCO)CCO)cc3)nc2c1C", "note": "[Compound 31]", "inhibition at 3 µM": 62},
      {"smiles": "CCN(CC)S(=O)(=O)c1ccc(CNc2nc3c(C)c(C)c(O)c(C)c3s2)cc1", "note": "[Compound 32]", "inhibition at 3 µM": 44},
      {"smiles": "Cc1c(O)c(C)c2sc(NCc3ccc(S(=O)(=O)NCCO)cc3)nc2c1C", "note": "[Compound 33]", "inhibition at 3 µM": 46},
      {"smiles": "Cc1c(O)c(C)c2sc(NCc3ccc(S(N)(=O)=O)cc3)nc2c1C", "note": "[Compound 34, 6-hydroxy-2-(4-sulfamoylbenzylamino)-4,5,7-trimethyl-benzothiazole]", "inhibition at 3 µM": 70},
      {"smiles": "CCN(Cc1ccc(S(N)(=O)=O)cc1)c1nc2c(C)c(C)c(O)c(C)c2s1", "note": "[Compound 35]", "inhibition at 3 µM": 68},
      {"smiles": "CC(C)c1cc2nc(NCc3ccc(S(N)(=O)=O)cc3)sc2c(C(C)C)c1O", "note": "[Compound 37]", "inhibition at 3 µM": 39},
      {"smiles": "CCN(Cc1ccc(S(N)(=O)=O)cc1)c1nc2cc(C(C)C)c(O)c(C(C)C)c2s1", "note": "[Compound 40]", "inhibition at 3 µM": 32},
      {"smiles": "Cc1c(O)c(C)c2sc(NC(=O)c3cccnc3)nc2c1C", "note": "[Compound 51]", "inhibition at 3 µM": 56},
      {"smiles": "Cc1c(O)c(C)c2sc(NC(=O)C3CCCCC3)nc2c1C", "note": "[Compound 52]", "inhibition at 3 µM": 62},
      {"smiles": "CC(=O)Nc1nc2c(C)c(C)c(O)c(C)c2s1", "note": "[Compound 53]", "inhibition at 3 µM": 69},
      {"smiles": "Cc1c(O)c(C)c2sc(NC(=O)c3ccccc3)nc2c1C", "note": "[Compound 54]", "inhibition at 3 µM": 58},
      {"smiles": "Cc1c(O)c(C)c2sc(NC(=O)CN(C)C)nc2c1C", "note": "[Compound 57]", "inhibition at 3 µM": 42},
      {"smiles": "Cc1c(O)c(C)c2sc(NC(=O)N(C)C)nc2c1C", "note": "[Compound 58]", "inhibition at 3 µM": 64},
      {"smiles": "CCOC(=O)Nc1nc2c(C)c(C)c(O)c(C)c2s1", "note": "[Compound 59]", "inhibition at 3 µM": 71},
      {"smiles": "CCOC(=O)C(=O)Nc1nc2c(C)c(C)c(O)c(C)c2s1", "note": "[Compound 60]", "inhibition at 3 µM": 36},
      {"smiles": "Cc1c(O)c(C)c2sc(NC(=O)C(=O)O)nc2c1C", "note": "[Compound 61]", "inhibition at 3 µM": 36},
      {"smiles": "CCOC(=O)CCC(=O)Nc1nc2c(C)c(C)c(O)c(C)c2s1", "note": "[Compound 64]", "inhibition at 3 µM": 32},
      {"smiles": "CC(C)c1cc2nc(NC(=O)N(C)C)sc2c(C(C)C)c1O", "note": "[Compound 68]", "inhibition at 3 µM": 70},
      {"smiles": "Cc1c(O)c(C)c2sc(NS(C)(=O)=O)nc2c1C", "note": "[Compound 69]", "inhibition at 3 µM": 42},
      {"smiles": "Cc1c(O)c(C)c2sc(NS(=O)(=O)C(C)C)nc2c1C", "note": "[Compound 70]", "inhibition at 3 µM": 30},
      {"smiles": "Cc1c(O)c(C)c2sc(NS(=O)(=O)c3ccccc3)nc2c1C", "note": "[Compound 71]", "inhibition at 3 µM": 53},
      {"smiles": "CC(C)c1cc2nc(NS(=O)(=O)N(C)C)sc2c(C(C)C)c1O", "note": "[Compound 75]", "inhibition at 3 µM": 50},
      {"smiles": "CC(C)c1c(O)c(C(C)C)c2sc(N)nc2c1Cl", "note": "[Compound 76]", "inhibition at 3 µM": 72},
      {"smiles": "NS(=O)(=O)c1ccc(CNc2nc3cc(Br)c(O)c(Br)c3s2)cc1", "note": "[Compound 86, 6-hydroxy-2-(4-sulfamoylbenzylamino)-5,7-dibromobenzothiazole]", "inhibition at 3 µM": 31},
      {"smiles": "NS(=O)(=O)c1ccc(CNc2nc3c(O)c(Br)cc(Br)c3s2)cc1", "note": "[Compound 87]", "inhibition at 3 µM": 32},
      {"smiles": "CCOC(=O)CCCNc1nc2c(C)c(C)c(O)c(C)c2s1", "note": "[Compound 88]", "inhibition at 3 µM": 79},
      {"smiles": "Cc1c(O)c(C)c2sc(N3CCCC3=O)nc2c1C", "note": "[Compound 90]", "inhibition at 3 µM": 41},
      {"smiles": "Cc1c(O)c(C)c2sc(NCCCC(=O)NC3CCCCC3)nc2c1C", "note": "[Compound 91]", "inhibition at 3 µM": 53},
      {"smiles": "CNc1nc2c(C)c(C)c(O)c(C)c2s1", "note": "[Compound 93]", "inhibition at 3 µM": 83},
      {"smiles": "Cc1c(O)c(C)c2sc(N(C)C)nc2c1C", "note": "[Compound 94]", "inhibition at 3 µM": 79},
      {"smiles": "CCCCCNc1nc2c(C)c(C)c(O)c(C)c2s1", "note": "[Compound 95]", "inhibition at 3 µM": 72},
      {"smiles": "CC(C)=CCNc1nc2c(C)c(C)c(O)c(C)c2s1", "note": "[Compound 96]", "inhibition at 3 µM": 77},
      {"smiles": "Cc1c(O)c(C)c2sc(Nc3ccc(O)cc3)nc2c1C", "note": "[Compound 98]", "inhibition at 3 µM": 60},
      {"smiles": "COc1ccc(Nc2nc3c(C)c(C)c(O)c(C)c3s2)cc1", "note": "[Compound 99]", "inhibition at 3 µM": 43},
      {"smiles": "Cc1c(O)c(C)c2sc(Nc3ccc(C(=O)O)cc3)nc2c1C", "note": "[Compound 101, 6-hydroxy-2-(4-carboxylphenylamino)-4,5,7-trimethylbenzothiazole]", "inhibition at 3 µM": 37},
      {"smiles": "Cc1c(O)c(C)c2sc(Nc3ccc(S(N)(=O)=O)cc3)nc2c1C", "note": "[Compound 103]", "inhibition at 3 µM": 48},
      {"smiles": "Cc1c(O)c(C)c2sc(Nc3cc(Cl)c(O)c(Cl)c3)nc2c1C", "note": "[Compound 106]", "inhibition at 3 µM": 49},
      {"smiles": "Cc1c(O)c(C)c2sc(Nc3ccc(CCC(=O)O)cc3)nc2c1C", "note": "[Compound 108]", "inhibition at 3 µM": 30},
      {"smiles": "COc1c(O)c(C)c2sc(N)nc2c1OC", "note": "[Compound 110]", "inhibition at 3 µM": 41},
      {"smiles": "CC(C)c1cc2nc(Nc3ccc(C(=O)O)cc3)sc2c(C(C)C)c1O", "note": "[Compound 113, 6-hydroxy-2-(4-carboxylphenylamino)-5,7-diisopropylbenzothiazole]", "inhibition at 3 µM": 49},
      {"smiles": "CC(C)c1cc2nc(Nc3ccccc3)sc2c(C(C)C)c1O", "note": "[Compound 115]", "inhibition at 3 µM": 39},
      {"smiles": "CC(C)c1cc2nc(Nc3ccc(S(N)(=O)=O)cc3)sc2c(C(C)C)c1O", "note": "[Compound 122]", "inhibition at 3 µM": 34},
      {"smiles": "CC(C)c1cc2nc(N(CCO)CCO)sc2c(C(C)C)c1O", "note": "[Compound 123]", "inhibition at 3 µM": 71},
      {"smiles": "CC(C)c1cc2nc(N3CCOCC3)sc2c(C(C)C)c1O", "note": "[Compound 124]", "inhibition at 3 µM": 72},
      {"smiles": "CC(C)c1cc2nc(NCc3ccccn3)sc2c(C(C)C)c1O", "note": "[Compound 126, 6-hydroxy-2-(2-pyridylmethylamino)-5,7-diisopropylbenzothiazole]", "inhibition at 3 µM": 66},
      {"smiles": "CC(C)c1cc2nc(N3CCC(O)CC3)sc2c(C(C)C)c1O", "note": "[Compound 128]", "inhibition at 3 µM": 60},
      {"smiles": "Cc1c(O)c(C)c2sc(NCc3ccccc3)nc2c1C", "note": "[Compound 134]", "inhibition at 3 µM": 88},
      {"smiles": "Cc1c(O)c(C)c2sc(NCc3ccc(C(=O)O)cc3)nc2c1C", "note": "[Compound 135]", "inhibition at 3 µM": 41},
      {"smiles": "COC(=O)c1ccc(CNc2nc3c(C)c(C)c(O)c(C)c3s2)cc1", "note": "[Compound 136]", "inhibition at 3 µM": 67},
      {"smiles": "Cc1c(O)c(C)c2sc(NCc3ccc(Cl)cc3Cl)nc2c1C", "note": "[Compound 137]", "inhibition at 3 µM": 40},
      {"smiles": "Cc1c(O)c(C)c2sc(NCc3ccc(C(N)=O)cc3)nc2c1C", "note": "[Compound 141]", "inhibition at 3 µM": 53}
    ]}
  ]
}
